Key:
[1] = molecular target: intracellular GCN2 (phosphorylation of the GCN2 substrate eIF2α) (Homo sapiens, UniProt Q9P2K8); test: GCN2 cellular inhibition assay (AlphaScreen SureFire P-eIF2α Ser51, borrelidin-treated U2OS cells); assay type: cell-based; settings: biomarker assay, phosphorylated eIF2α Ser51 in borrelidin-treated U2OS cells
Outline: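 Phospho-eIF2α (Ser51) in lysates was quantified by AlphaScreen SureFire after a 1 h, 37 °C treatment of U2OS cells with 10 μM borrelidin and compound at 4-fold dilutions starting from 40 μM final. Inhibition expressed in percent against wells stimulated by borrelidin alone.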

[2] = molecular target: GCN2 kinase (Homo sapiens, UniProt Q9P2K8); test: GCN2 enzyme inhibition assay (Transcreener ADP2 fluorescence polarization); assay type: biochemical; settings: 280 μM ATP
Outline: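 Kinase activity is followed as ADP formation, measured by fluorescence polarization, using 4 nM enzyme with 280 μM ATP and 200 μM (RS)7 peptide at pH 7.5 and 25 °C for 1 h. Values come from a non-linear tight-binding fit.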

[3] = Enzyme activity for compounds of Formula IV, Ki(app), 25° C.
[4] = compounds of Formula II, 4 nM GCN2 kinase

intracellular GCN2 (phosphorylation of the GCN2 substrate eIF2α), sequence (Q9P2K8 whole entry): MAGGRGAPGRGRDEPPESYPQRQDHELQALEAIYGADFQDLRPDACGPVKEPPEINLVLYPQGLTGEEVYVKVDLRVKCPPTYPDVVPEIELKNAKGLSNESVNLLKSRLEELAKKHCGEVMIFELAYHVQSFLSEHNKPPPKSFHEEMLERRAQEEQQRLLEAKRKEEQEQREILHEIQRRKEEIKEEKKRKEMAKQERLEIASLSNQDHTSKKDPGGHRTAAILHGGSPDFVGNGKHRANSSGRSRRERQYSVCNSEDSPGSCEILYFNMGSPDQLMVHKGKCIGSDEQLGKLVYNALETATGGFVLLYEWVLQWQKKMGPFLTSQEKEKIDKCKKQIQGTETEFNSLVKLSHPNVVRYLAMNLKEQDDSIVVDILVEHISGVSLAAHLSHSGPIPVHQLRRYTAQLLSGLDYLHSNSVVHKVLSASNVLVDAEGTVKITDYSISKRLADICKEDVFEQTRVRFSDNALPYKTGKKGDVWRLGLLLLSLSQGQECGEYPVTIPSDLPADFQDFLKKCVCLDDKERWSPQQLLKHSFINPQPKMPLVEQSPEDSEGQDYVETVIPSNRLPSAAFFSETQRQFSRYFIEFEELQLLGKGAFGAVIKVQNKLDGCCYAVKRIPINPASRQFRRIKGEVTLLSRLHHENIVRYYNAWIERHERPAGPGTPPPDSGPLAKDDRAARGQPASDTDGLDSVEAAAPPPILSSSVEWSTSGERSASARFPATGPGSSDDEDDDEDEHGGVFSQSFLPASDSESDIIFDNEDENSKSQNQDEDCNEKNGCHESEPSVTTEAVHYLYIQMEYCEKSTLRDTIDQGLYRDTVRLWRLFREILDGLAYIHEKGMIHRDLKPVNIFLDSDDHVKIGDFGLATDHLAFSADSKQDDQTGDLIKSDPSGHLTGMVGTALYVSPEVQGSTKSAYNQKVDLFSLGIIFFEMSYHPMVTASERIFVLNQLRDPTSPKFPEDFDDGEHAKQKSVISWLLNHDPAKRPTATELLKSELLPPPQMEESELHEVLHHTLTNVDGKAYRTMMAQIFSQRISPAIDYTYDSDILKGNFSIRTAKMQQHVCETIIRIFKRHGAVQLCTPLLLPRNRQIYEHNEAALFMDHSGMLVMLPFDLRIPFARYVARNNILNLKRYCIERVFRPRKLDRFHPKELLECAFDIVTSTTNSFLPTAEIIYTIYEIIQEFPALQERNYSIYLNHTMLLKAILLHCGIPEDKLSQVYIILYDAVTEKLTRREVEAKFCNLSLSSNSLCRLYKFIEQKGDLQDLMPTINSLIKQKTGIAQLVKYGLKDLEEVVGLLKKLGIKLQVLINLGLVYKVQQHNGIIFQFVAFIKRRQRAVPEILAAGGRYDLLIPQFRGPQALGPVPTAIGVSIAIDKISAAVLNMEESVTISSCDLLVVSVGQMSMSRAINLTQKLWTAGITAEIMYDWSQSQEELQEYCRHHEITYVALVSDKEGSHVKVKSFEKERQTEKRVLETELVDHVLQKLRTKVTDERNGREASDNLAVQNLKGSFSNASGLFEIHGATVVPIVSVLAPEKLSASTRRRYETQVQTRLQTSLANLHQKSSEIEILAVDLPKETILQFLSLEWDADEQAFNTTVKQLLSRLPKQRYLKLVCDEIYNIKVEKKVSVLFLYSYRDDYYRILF
GCN2 kinase, sequence (Q9P2K8 whole entry): as above

SMILES	IC50 ([1]; compounds of Formula IV)	Ki [2, 3]	IC50 ([1]; compounds of Formula II)	Ki [2, 4]
NC(=O)c1cn2c(-c3cccc(N4CCN5C(=O)CCCC5C4)n3)cnc2cn1 (stereo not shown) [IV-210, 3-(6-(6-Oxooctahydro-2H-pyrido[1,2-a]pyrazin-2-yl)pyridin-2-yl)imidazo[1,2-a]pyrazine-6-carboxamide]	500 to 5000 nM	< 10 nM		
O=C1CCCC2CN(c3ccnc(-c4cnc5cnc(C(F)F)cn45)n3)CCN12 (stereo not shown) [IV-99, 2-(2-(6-(Difluoromethyl)imidazo[1,2-a]pyrazin-3-yl)pyrimidin-4-yl)octahydro-6H-pyrido[1,2-a]pyrazin-6-one]	> 5000 nM	100 to 1000 nM		
CS(=O)(=O)C1CCN(c2cc(-c3cnc4ccc(C(F)F)nn34)ncn2)C1 (stereo not shown) [II-395, 6-(Difluoromethyl)-3-(6-(3-(methylsulfonyl)pyrrolidin-1-yl)pyrimidin-4-yl)imidazo[1,2-b]pyridazine]			> 5000 nM	10 to 1000 nM
O=C(NC1CC1)NC1CCN(c2cc(-c3cnc4ccc(C(F)F)nn34)ncn2)C1 (stereo not shown) [II-216, 1-Cyclopropyl-3-(1-(6-(6-(difluoromethyl)imidazo[1,2-b]pyridazin-3-yl)pyrimidin-4-yl)pyrrolidin-3-yl)urea]			> 5000 nM	10 to 1000 nM
O=C1CCN(c2cc(-c3cnc4ccc(C(F)F)nn34)ncn2)CCN1 [II-15, 1-(6-(6-(Difluoromethyl)imidazo[1,2-b]pyridazin-3-yl)pyrimidin-4-yl)-1,4-diazepan-5-one]			> 5000 nM	10 to 1000 nM
C[C@H]1CCCCN1c1ccnc(-c2cnc3cnc(C(F)F)cn23)n1 [IV-85, (S)-6-(Difluoromethyl)-3-(4-(2-methylpiperidin-1-yl)pyrimidin-2-yl)imidazo[1,2-a]pyrazine]	> 5000 nM	100 to 1000 nM		
CS(=O)(=O)N1CC2(CN(c3cc(-c4cnc5ccc(C(F)F)nn45)ncn3)CCO2)C1 [II-273, 8-(6-(6-(Difluoromethyl)imidazo[1,2-b]pyridazin-3-yl)pyrimidin-4-yl)-2-(methylsulfonyl)-5-oxa-2,8-diazaspiro[3.5]nonane]			500 to 5000 nM	10 to 1000 nM
CC(NS(C)(=O)=O)C1CCCN(c2cc(-c3cnc4ccc(C(F)F)nn34)ccn2)C1 (stereo not shown) [II-133, N-(1-(1-(4-(6-(Difluoromethyl)imidazo[1,2-b]pyridazin-3-yl)pyridin-2-yl)piperidin-3-yl)ethyl)methanesulfonamide]			500 to 5000 nM	< 10 nM
CP(C)(=O)C1CC(c2cn[nH]c2)CN(c2ccnc(-c3cnc4cnc(C(F)(F)F)cn34)n2)C1 (single isomer, unassigned) [IV-633, (5-(1H-Pyrazol-4-yl)-1-(2-(6-(trifluoromethyl)imidazo[1,2-a]pyrazin-3-yl)pyrimidin-4-yl)piperidin-3-yl)dimethylphosphine oxide]	> 5000 nM	10 to 100 nM		
CC(F)(F)c1ccc2ncc(-c3cc(N4CCO[C@H](CNS(C)(=O)=O)C4)ncn3)n2n1 [II-322, (S)—N-((4-(6-(6-(1,1-Difluoroethyl)imidazo[1,2-b]pyridazin-3-yl)pyrimidin-4-yl)morpholin-2-yl)methyl)methanesulfonamide]			> 5000 nM	10 to 1000 nM
FC(F)(F)c1cn2c(-c3nccc(N4CCC(C5CCOC5)C4)n3)cnc2cn1 (stereo not shown) [IV-580, 3-(4-(3-(Tetrahydrofuran-3-yl)pyrrolidin-1-yl)pyrimidin-2-yl)-6-(trifluoromethyl)imidazo[1,2-a]pyrazine]	> 5000 nM	10 to 100 nM		
CS(=O)(=O)NCC1CCCN(c2cc(-c3cnc4ccc(C(F)F)nn34)cc(N3CC(O)C3)n2)C1 (stereo not shown) [II-85, N-((1-(4-(6-(Difluoromethyl)imidazo[1,2-b]pyridazin-3-yl)-6-(3-hydroxyazetidin-1-yl)pyridin-2-yl)piperidin-3-yl)methyl)methanesulfonamide]			500 to 5000 nM	< 10 nM
CC1C(CNS(C)(=O)=O)N(C2CC2)CCN1c1cc(-c2cnc3ccc(C(F)F)nn23)ncn1 (single isomer, unassigned) [II-479, N-((1-Cyclopropyl-4-(6-(6-(difluoromethyl)imidazo[1,2-b]pyridazin-3-yl)pyrimidin-4-yl)-3-methylpiperazin-2-yl)methyl)methanesulfonamide]			< 500 nM	< 10 nM
CNCCOc1cc(-c2cnc3ccc(C(F)F)nn23)cc(N2CCCC(CNS(C)(=O)=O)C2)n1 (stereo not shown) [II-74, N-((1-(4-(6-(Difluoromethyl)imidazo[1,2-b]pyridazin-3-yl)-6-(2-(methylamino)ethoxy)pyridin-2-yl)piperidin-3-yl)methyl)methanesulfonamide]			500 to 5000 nM	< 10 nM
OC[C@@H]1CCCN(c2ccnc(-c3cnc4cnc(C(F)F)cn34)n2)C1 [IV-138, (R)-(1-(2-(6-(Difluoromethyl)imidazo[1,2-a]pyrazin-3-yl)pyrimidin-4-yl)piperidin-3-yl)methanol]	> 5000 nM	100 to 1000 nM		
OC[C@H]1CN(c2cc(-c3cnc4ccc(C(F)F)nn34)ncn2)C[C@@H](C(F)(F)F)O1 [II-298, ((2R,6S)-4-(6-(6-(Difluoromethyl)imidazo[1,2-b]pyridazin-3-yl)pyrimidin-4-yl)-6-(trifluoromethyl)morpholin-2-yl)methanol]			500 to 5000 nM	10 to 1000 nM
NC(=O)CCC1CCCN(c2cc(-c3cnc4ccc(C(F)F)nn34)ncn2)C1 (stereo not shown) [II-214, 3-(1-(6-(6-(Difluoromethyl)imidazo[1,2-b]pyridazin-3-yl)pyrimidin-4-yl)piperidin-3-yl)propanamide]			500 to 5000 nM	10 to 1000 nM
CC(=O)N1CC=C(c2ccnc(-c3cnc4cnc(C(F)F)cn34)n2)CC1 [IV-156, 1-(4-(2-(6-(Difluoromethyl)imidazo[1,2-a]pyrazin-3-yl)pyrimidin-4-yl)-3,6-dihydropyridin-1(2H)-yl)ethan-1-one]	> 5000 nM	100 to 1000 nM		
CC1C(c2cn[nH]c2)CCCN1c1nccc(-c2cnc3cnc(C(F)(F)F)cn23)n1 (stereo not shown) [IV-485, 3-(2-(2-Methyl-3-(1H-pyrazol-4-yl)piperidin-1-yl)pyrimidin-4-yl)-6-(trifluoromethyl)imidazo[1,2-a]pyrazine]	< 500 nM	< 10 nM		
Cc1nc(C2CCCN(c3ccnc(-c4cnc5cnc(Br)cn45)n3)C2)c[nH]1 (single isomer, unassigned) [IV-375, 6-Bromo-3-(4-(3-(2-methyl-1H-imidazol-4-yl)piperidin-1-yl)pyrimidin-2-yl)imidazo[1,2-a]pyrazine]	< 500 nM	< 10 nM		
OCCC1CCCN(c2ccnc(-c3cnc4cnc(C(F)(F)F)cn34)n2)C1 (stereo not shown) [IV-444, 2-(1-(2-(6-(Trifluoromethyl)imidazo[1,2-a]pyrazin-3-yl)pyrimidin-4-yl)piperidin-3-yl)ethan-1-ol]	> 5000 nM	100 to 1000 nM		
CC1CN(c2cc(-c3cnc4ccc(C(F)F)nn34)ncn2)CC1CNS(C)(=O)=O (stereo not shown) [II-238, N-((1-(6-(6-(Difluoromethyl)imidazo[1,2-b]pyridazin-3-yl)pyrimidin-4-yl)-4-methylpyrrolidin-3-yl)methyl)methanesulfonamide]			500 to 5000 nM	10 to 1000 nM
C[C@H]1[C@@H](C[S@@](C)(=N)=O)CCCN1c1cc(-c2cnc3ccc(C(F)F)nn23)ncn1 [II-485, (S)-(((2S,3S)-1-(6-(6-(Difluoromethyl)imidazo[1,2-b]pyridazin-3-yl)pyrimidin-4-yl)-2-methylpiperidin-3-yl)methyl)(imino)(methyl)-λ^6-sulfanone]			< 500 nM	< 10 nM
CNS(=O)(=O)NCC1CN(c2cc(-c3cnc4ccc(C(F)F)nn34)ncn2)CCO1 (stereo not shown) [II-386, 1-((4-(6-(6-(Difluoromethyl)imidazo[1,2-b]pyridazin-3-yl)pyrimidin-4-yl)morpholin-2-yl)methyl)-3-methylsulfuric diamide]			< 500 nM	< 10 nM
CC1(F)CCN(c2cc(-c3cnc4ccc(C(F)F)nn34)ncn2)CC1CNS(C)(=O)=O (single isomer, unassigned) [II-388, N-((1-(6-(6-(Difluoromethyl)imidazo[1,2-b]pyridazin-3-yl)pyrimidin-4-yl)-4-fluoro-4-methylpiperidin-3-yl)methyl)methanesulfonamide]			500 to 5000 nM	10 to 1000 nM
CC1CN(c2ccnc(-c3cnc4cnc(C(F)(F)F)cn34)n2)C(C)C(c2cnc[nH]2)N1 (single isomer, unassigned) [IV-538, 3-(4-(3-(1H-Imidazol-5-yl)-2,5-dimethylpiperazin-1-yl)pyrimidin-2-yl)-6-(trifluoromethyl)imidazo[1,2-a]pyrazine]	500 to 5000 nM	< 10 nM		
CC1(C)CN(c2cc(-c3cnc4ccc(C(F)F)nn34)ncn2)CC1CNS(C)(=O)=O (stereo not shown) [II-213, N-((1-(6-(6-(Difluoromethyl)imidazo[1,2-b]pyridazin-3-yl)pyrimidin-4-yl)-4,4-dimethylpyrrolidin-3-yl)methyl)methanesulfonamide]			500 to 5000 nM	< 10 nM
FC(F)c1ccc2ncc(-c3cc(N4CCCCC4C(F)(F)F)ncn3)n2n1 (stereo not shown) [II-380, 6-(Difluoromethyl)-3-(6-(2-(trifluoromethyl)piperidin-1-yl)pyrimidin-4-yl)imidazo[1,2-b]pyridazine]			> 5000 nM	> 1000 nM
CC1CC(F)(F)C(CNS(C)(=O)=O)CN1c1cc(-c2cnc3ccc(C(F)F)nn23)ncn1 (single isomer, unassigned) [II-305, N-((1-(6-(6-(Difluoromethyl)imidazo[1,2-b]pyridazin-3-yl)pyrimidin-4-yl)-4,4-difluoro-6-methylpiperidin-3-yl)methyl)methanesulfonamide]			> 5000 nM	10 to 1000 nM

Reference: patent US10988477B2 (Merck Patent GmbH, priority 2018, dated 2021)
